Assay results taken from EP0288647B1, “Derivatives of 5-[2-(1-pyrrolidinyl)ethoxy]-p-cymene, process for their preparation, and medicaments containing these derivatives” (INSTITUT DE RECHERCHES CHIMIQUES ET BIOLOGIQUES APPLIQUEES …, priority 1987, dated 1988).

What was measured:
[1] = test system: toxicité de la noradrénaline; assay: In vivo adrenolytic activity: protection against death caused by i.v. noradrenaline; conditions: rat, 30 min before noradrenaline 0,4 mg/kg⁻¹ I.V.
Description: La noradrénaline injectée à fortes doses par voie intraveineuse provoque la mort de 100 % des animaux dans les 15 minutes qui suivent son injection. La mort survient par oedème pulmonaire dû à l'hypertension artérielle induite par la stimulation des récepteurs adrénergiques. L'administration préalable de substances α-adrénolytiques par voie orale permet de réduire la toxicité de la noradrénaline. Les produits sont administrés par voie orale à des temps variables entre 30 minutes et 6 heures avant l'injection intraveineuse (I.V.) de noradrénaline (0,4 mg/kg⁻¹).

[2] = Acute toxicity, lethal dose 50 after oral and intravenous administration; format: in vivo, souris; conditions: mouse; for DL 50 I.V.: intravenous administration; for DL 50 P.O.: oral administration
Excerpt: Les doses létales 50 suivantes ont été obtenues après administration orale (P.O.) et intraveineuse (I.V.) des substances chez la souris.
Les résultats obtenus sont consignés dans le tableau I. TABLEAU I

[3] = test system: hyperpression urétrale neurogène et pression artérielle; assay: Urethral specificity in the anaesthetised dog: neurogenic urethral hyperpressure (hypogastric nerve stimulation) and arterial pressure; format: in vivo, chien; conditions: product i.v.; for Hypotension artérielle DE. 20: dose causing 20 % arterial hypotension; for Hyperpression urétrale neurogène DI. 50: electrical stimulation of the hypogastric nerve
Excerpt: L'effet des produits B 1007, B 1024, B 1125 et B 1134, injectés par voie intraveineuse sur l'hyperpression urétrale neurogène et sur la pression artérielle, a été recherché chez le chien anesthésié.
La stimulation électrique du nerf hypogastrique provoque une augmentation de la pression urétrale par libération de noradrénaline à partir des fibres sympathiques du nerf.
Les substances α-bloquantes antagonisent en fonction des doses ces augmentations de pression urétrale et provoquent une hypotension artérielle par action bloquante au niveau des récepteurs vasculaires.
On calcule la dose qui inhibe de 50 % (DI. 50) les effets de la stimulation du nerf hypogastrique sur la pression urétrale et la dose qui provoque une hypotension artérielle de 20 % (DE. 20).

[4] = test system: pressions artérielle et urétrale; assay: In vivo α-blocking activity at urethral and vascular level: noradrenaline-induced rise of arterial and urethral pressure in the anaesthetised rabbit; set-up: species or system lapin; conditions: product i.v.
Excerpt: L'activité α-bloquante "in vivo" aux niveaux urétral et vasculaire chez le lapin anesthésié a été recherchée par administration intraveineuse des produits B 1007, B 1024, B 1058, B 1125 et B 1134.
L'injection intraveineuse de noradrénaline provoque chez le lapin une augmentation dose dépendante des pressions artérielle et urétrale. Les substances α-bloquantes injectées par voie intraveineuse antagonisent en fonction des doses ces augmentations de pression. On calcule la dose inhibitrice 50 % (D.I. 50) définie comme étant la dose de produit provoquant une diminution de 50 % des effets de la noradrénaline sur les pressions artérielle et urétrale.

urètre isolé du lapin = assay: In vitro α-adrenolytic activity: antagonism of noradrenaline contractions of isolated rabbit urethra; format: cell-based
Excerpt: (§1) Elle a été étudiée sur le canal déférent du rat et sur l'urètre du lapin.
(§2) La noradrénaline provoque des contractions du canal déférent isolé du rat et de l'urètre isolé du lapin. La présence dans le bain de l'organe de substances α-bloquantes antagonise ces contractions : l'utilisation de concentrations croissantes de substances α-bloquantes permet de calculer : • la pA₂ des composés sur le canal déférent du rat; la pA₂ étant le logarithme changé de signe de la concentration molaire du produit en présence de laquelle il faut multiplier par deux la concentration de noradrénaline pour obtenir le même effet qu'en l'absence du produit; • la pD'₂ des composés sur l'urètre du lapin; la pd'₂ étant le logarithme changé de signe de la concentration molaire du produit en présence de laquelle l'activité contracturante de la noradrénaline est divisée par deux.

[5] = test system: canal déférent isolé du rat; assay: In vitro α-adrenolytic activity: antagonism of noradrenaline contractions of isolated rat vas deferens; format: cell-based
Excerpt: as §1, §2

Row | SMILES | % de protection contre la mort ([1]; 50 mg/kg⁻¹ p.o.) | DL 50 I.V. [2] | DL 50 P.O. [2] | Hypotension artérielle DE. 20 [3] | Hyperpression urétrale neurogène DI. 50 [3] | D.I. 50 vis-à-vis de l'hypertension artérielle [4] | D.I. 50 vis-à-vis de l'hypertension urétrale [4] | Action α-bloquante vis-à-vis de la noradrénaline sur urètre isolé pD'₂ (urètre isolé du lapin) | Action α-bloquante vis-à-vis de la noradrénaline sur canal déférent isolé pA₂ [5] | % de protection contre la mort ([1]; 25 mg/kg⁻¹ p.o.)
1 | Cc1ccc(C(C)C)c(OCCN2CCCC2)c1.Cl [B 1007, chlorhydrate du [(pyrrolidinyl-1)-2-éthoxy]-3 p-cymène] | 60% | 75 mg/kg⁻¹ | 330 mg/kg⁻¹ | 2 mg/kg⁻¹ | 0,35 mg/kg⁻¹ | 7,63 mg/kg⁻¹ | 0,34 mg/kg⁻¹ | 6,88 | 6,74 | –
2 | CC(=O)Oc1cc(C(C)C)c(OCCN(C)C)cc1C [Thymoxamine, reference compound] | 80% | 72,5 mg/kg⁻¹ | 300 mg/kg⁻¹ | 0,27 mg/kg⁻¹ | 0,09 mg/kg⁻¹ | 2,72 mg/kg⁻¹ | 0,5 mg/kg⁻¹ | 7,03 | 7,25 | –
3 | CC(=O)Oc1cc(C(C)C)c(OCCN2CCCC2)cc1C.Cl [B 1024, chlorhydratede l'acétoxy-2[(pyrrolidinyl-1)-2-éthoxy]-5 p-cymène] | – | 18 mg/kg⁻¹ | 100 mg/kg⁻¹ | 8 mg/kg⁻¹ | 0,07 mg/kg⁻¹ | 4,14 mg/kg⁻¹ | 0,23 mg/kg⁻¹ | 6,38 | 6,98 | 70%
4 | Cc1cc(OCCN2CCCC2)c(C(C)C)cc1O.Cl [B 1058, chlorhydratede l'hydroxy-2[(pyrrolidinyl-1)-2-éthoxy]-5 p-cymène] | 90% | 17 mg/kg⁻¹ | 80 mg/kg⁻¹ | – | – | 1,22 mg/kg⁻¹ | 0,13 mg/kg⁻¹ | 6,69 | 7,18 | –
5 | CCCC(=O)Oc1cc(C(C)C)c(OCCN2CCCC2)cc1C.Cl [B 1132, chlorhydrate du butyryloxy-2[(pyrrolidinyl1)-2-éthoxy]-5 p-cymène] | 90% | – | ≃ 500 mg/kg⁻¹ | – | – | – | – | 6,0 | 7,35 | –
